The target of experiment [1] is T1, cPLA2 (Homo sapiens, UniProt P47712).
T1 sequence (P47712 1-749): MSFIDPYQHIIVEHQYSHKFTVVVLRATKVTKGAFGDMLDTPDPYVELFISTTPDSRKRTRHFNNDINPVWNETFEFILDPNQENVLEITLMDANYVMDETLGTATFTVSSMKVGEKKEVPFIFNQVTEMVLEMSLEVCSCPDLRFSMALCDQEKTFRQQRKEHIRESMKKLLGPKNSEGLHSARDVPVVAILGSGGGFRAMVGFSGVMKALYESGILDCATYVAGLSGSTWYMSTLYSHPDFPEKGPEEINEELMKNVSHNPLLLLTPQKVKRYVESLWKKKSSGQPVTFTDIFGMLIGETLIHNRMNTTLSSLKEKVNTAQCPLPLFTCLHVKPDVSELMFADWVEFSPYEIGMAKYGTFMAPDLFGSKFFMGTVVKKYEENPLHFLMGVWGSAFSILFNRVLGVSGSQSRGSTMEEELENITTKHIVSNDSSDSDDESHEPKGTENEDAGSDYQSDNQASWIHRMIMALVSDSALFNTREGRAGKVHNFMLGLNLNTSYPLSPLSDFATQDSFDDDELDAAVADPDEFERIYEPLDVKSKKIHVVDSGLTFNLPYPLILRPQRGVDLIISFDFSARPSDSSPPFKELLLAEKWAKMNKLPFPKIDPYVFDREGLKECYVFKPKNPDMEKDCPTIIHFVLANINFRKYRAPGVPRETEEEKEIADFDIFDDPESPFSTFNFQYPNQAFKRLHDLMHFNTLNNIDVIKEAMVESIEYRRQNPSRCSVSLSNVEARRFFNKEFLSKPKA
The experiment is described as follows: cPLA2 Inhibitory activity (release of radiolabelled fatty acid from liposomes). It is filed as biochemical. As to conditions: 50 mM HEPES pH 7.4, 1 mM CaCl2, 2.5 μM radio-labeled phosphatidylcholine, 15 min at 37° C; read-out: cPLA2 Inhibition Activity IC50. Here is the method: Experiment 1 cPLA2 Inhibitory activity
The compounds of the present invention was tested for the cPLA2 inhibitory activity by a method known in a literature (R. M. Kramer, E. F. Roberts, J. Manetta and J. E. Putnam, J. Biol. Chem., 268(8), 5268-5272 ([…])), as outlined below.
As a substrate, liposomes which contain 1-palmitoyl-2-[^14 C]-arachidonoyl-sn-glycero-3-phosphocholine and sn-1,2-dioleoylglycerol at the ratio of 2:1 and have treated ultrasonically were used. The substrate was added to a 50 mM HEPES buffer (pH 7.4) (200 μl) containing 1 mM CaCl2, 2 mM dithiothreitol, 150 mM NaCl, 0.1 mg/ml BSA so as to make the concentration of radio-labeled phosphatidylcholine 2.5 μM. To the solution was added a compound of the present invention in DMSO (10 μl) to obtain reaction solutions each containing the test compound at 250 μM, 50 μM, 10 μm, 2 μM, and 0.4 μM. The reaction was allowed to start by adding an enzyme (cPLA2) (4 ng) and continued for 15 min at 37° C.
The amount of fatty acids released by the reaction was measured on a liquid scintillation counter. Control was obtained by conducting the experiment in the same manner except that a compound of the present invention was not added. The inhibitory activity was expressed as percent (%) to the control value, which was used for the calculation of the concentration required for 50% inhibition (IC50, μM).

For experiment [2], the system named is Prostaglandin E2 production in human fibroblasts. Kind of experiment: Inhibition of Production of Prostaglandin E2 in Human Fibroblasts (IL-1 stimulated). As to conditions: Fibroblast, stimulation with IL-1, read-out: Inhibitory activity Against the Production of Prostaglandin E2 in Human Fibroblasts IC50. It is filed as cell-based. Here is the method:
Experiment 2 Inhibition of Production of Prostaglandin E2 in Human Fibroblasts
From this viewpoint, the compounds of the present invention were tested for the effect on the production of prostaglandin E2 by human fibroblasts under the stimulation with IL-1 according to the method of J. M. Dayer et al (CACHECTIN/TUMOR NECROSIS FACTOR STIMULATES COLLAGENASE AND PROSTAGLANDIN E2 PRODUCTION BY HUMAN SYNOVIAL CELLS AND DERMAL FIBROBLASTS; J. M. Dayer, B. Beutlerm and A. Cerami, J. Exp. Med., 162,2163-2168, 1985).

Each structure is given as a SMILES string.

As for `CC(=O)Nc1ccc(S(=O)(=O)N2C[C@@H](SCc3ccccc3)C[C@H]2C(=O)Nc2ccc(/C=C3\SC(=S)NC3=O)cc2)cc1` [Compound A-38], the figures for the IC50 in experiment [1] and in experiment [2] were 6.4 µM and 4.9 µM, respectively.
On the same counts, the results for `CC(C)(C)c1ccc(S(=O)(=O)N2C[C@@H](SCc3ccccc3)C[C@H]2C(=O)Nc2ccc(/C=C3\SC(=S)NC3=O)cc2)cc1` [Compound A-39] are 6.2 µM and 6 µM.
In the case of `CS[C@H]1C[C@@H](C(=O)Nc2ccc(/C=C3\SC(=O)NC3=O)cc2)N(S(=O)(=O)c2c(Cl)cccc2Cl)C1` [Compound A-40], the IC50 in experiment [1] was 15 µM; in experiment [2], 7.7 µM.
`O=C1NC(=S)S/C1=C\c1ccc(NC(=O)[C@@H]2C[C@H](SCc3ccccc3)CN2S(=O)(=O)c2c(Cl)cccc2Cl)cc1` [Compound A-41]: the IC50 in experiment [1] came to 3.4 µM; in experiment [2] it was 14 µM.
With `O=C1NC(=O)/C(=C/c2ccc(NC(=O)[C@@H]3C[C@H](SCc4ccccc4)CN3S(=O)(=O)c3ccc(-c4ccccc4)cc3)cc2)S1` [Compound A-42], the IC50 in experiment [1] was 14 µM; in experiment [2], 3.8 µM.
In the case of `O=C1NC(=S)S/C1=C\c1ccc(NC(=O)[C@@H]2C[C@H](SCc3ccccc3)CN2S(=O)(=O)c2ccc(-c3ccccc3)cc2)cc1` [Compound A-43], the 50% inhibitory concentration (IC50) is 6.8 µM in experiment [1] and 8.8 µM in experiment [2].
On the same counts, the results for `CS[C@H]1C[C@@H](C(=O)Nc2ccc(/C=C3\SC(=O)NC3=O)cc2)N(S(=O)(=O)c2ccc(-c3ccccc3)cc2)C1` [Compound A-44] are 7.4 µM and 1.5 µM.
In the case of `CS[C@H]1C[C@@H](C(=O)Nc2ccc(/C=C3\SC(=S)NC3=O)cc2)N(S(=O)(=O)c2ccc(-c3ccccc3)cc2)C1` [Compound A-45], the IC50 in experiment [1] turned out to be 4.8 µM; in experiment [2] it was 1.5 µM.
As for `COc1cc(CS[C@H]2C[C@@H](C(=O)Nc3ccc(/C=C4\SC(=O)NC4=O)cc3)N(S(=O)(=O)c3ccc(-c4ccccc4)cc3)C2)cc(OC)c1OC` [Compound A-46], the half-inhibitory concentration (IC50) is 7 µM in experiment [1] and 1.5 µM in experiment [2].
Turning to `O=C1NC(=S)S/C1=C\c1ccc(NC(=O)[C@@H]2C[C@H](SCc3ccccc3)CN2S(=O)(=O)c2ccc(Cc3ccccc3)cc2)cc1` [Compound A-48], the IC50 in experiment [1] was found to be 4.9 µM; in experiment [2], 8.7 µM.
With `CN(C)c1cccc2c(S(=O)(=O)N3C[C@@H](SCc4ccccc4)C[C@H]3C(=O)Nc3ccc(/C=C4\SC(=S)NC4=O)cc3)cccc12` [Compound A-52], the IC50 was determined as 5.6 µM in experiment [1] and 2.9 µM in experiment [2].
In the same order, the values of `O=C1NC(=S)S/C1=C\c1ccc(NC(=O)[C@@H]2C[C@H](SCc3ccccc3)CN2S(=O)(=O)Cc2ccc(Br)cc2)cc1` [Compound A-54] are 3.4 µM and 1.1 µM.
As to `O=C1NC(=S)S/C1=C\c1ccc(NC(=O)[C@@H]2C[C@H](SCc3ccccc3)CN2S(=O)(=O)Cc2ccc(F)cc2)cc1` [Compound A-55], the IC50 in experiment [1] was found to be 3.4 µM; in experiment [2], 1.1 µM.
As to `N#CCCCOc1ccc(CS[C@H]2C[C@@H](C(=O)Nc3ccc(/C=C4\SC(=S)NC4=O)cc3)N(S(=O)(=O)Cc3ccc(Br)cc3)C2)cc1` [Compound A-56], the 50% inhibitory concentration (IC50) in experiment [1] came out at 1.9 µM; in experiment [2], 0.93 µM.
Consider `O=C1NC(=S)S/C1=C\c1cn(NC(=O)[C@@H]2C[C@H](SCc3ccccc3)CN2C(=O)c2ccccc2)c2ccccc12` [Compound A-60], for which the IC50 in experiment [1] came out at 6.1 µM; in experiment [2], 1.3 µM.
As to `O=C1NC(=S)O/C1=C\c1cn(NC(=O)[C@@H]2C[C@H](SCc3ccccc3)CN2C(=O)c2ccccc2)c2ccccc12` [Compound A-61], the values for the IC50 in experiment [1] and in experiment [2] were 1.6 µM and 10 µM, respectively.
Regarding `CC(C)(C)OC(=O)N1C[C@@H](SC(c2ccccc2)(c2ccccc2)c2ccccc2)C[C@H]1C(=O)Nc1ccc(/C=C2\OC(=S)NC2=O)cc1` [Compound A-62], the IC50 in experiment [1] is 4.3 µM; in experiment [2], 2.2 µM.
On to `O=C1NC(=O)/C(=C/c2ccc(C(=O)NC[C@@H]3C[C@H](SC(c4ccccc4)(c4ccccc4)c4ccccc4)CN3C(=O)CCc3ccccc3)cc2)S1` [Compound B-1], for which the values for the half-maximal inhibitory concentration (IC50) in experiment [1] and in experiment [2] were 0.82 µM and 7.5 µM, respectively.
As for `COc1ccc(COC(=O)N2C[C@@H](SCc3cc(C(C)(C)C)c(OC)c(C(C)(C)C)c3)C[C@H]2CNC(=O)c2ccc(/C=C3\SC(=O)NC3=O)cc2)cc1` [Compound B-3], the IC50 in experiment [1] turned out to be 1.2 µM; in experiment [2], 2.1 µM.
On to `O=C1NC(=O)/C(=C/c2ccc(C(=O)NC[C@@H]3C[C@H](SC(c4ccccc4)(c4ccccc4)c4ccccc4)CN3C(=O)OCc3ccc([N+](=O)[O-])cc3)cc2)S1` [Compound B-4], for which the IC50 turned out to be 2.4 µM in experiment [1] and 4.6 µM in experiment [2].
For the compound `COC(=O)c1ccc(CS[C@H]2C[C@@H](CNC(=O)c3ccc(/C=C4\SC(=S)NC4=O)cc3)N(C(=O)c3ccccc3)C2)cc1` [Compound B-5], the IC50 came to 2.2 µM in experiment [1] and 2 µM in experiment [2].
Regarding `NC(=O)c1ccc(CS[C@H]2C[C@@H](CNC(=O)c3ccc(/C=C4\SC(=S)NC4=O)cc3)N(C(=O)c3ccccc3)C2)cc1` [Compound B-6], the IC50 was 31 µM in experiment [1] and 4.7 µM in experiment [2].
On the same counts, the results for `O=C1NC(=O)C(=Cc2ccc(S(=O)(=O)NC[C@@H]3C[C@H](SCc4ccccc4)CN3C(=O)c3ccccc3)cc2)S1` [Compound B-7] are 9.7 µM and 3.6 µM.
On the same counts, the results for `CS[C@H]1C[C@@H](C(=O)Nc2ccccc2/C=C2\SC(=O)NC2=O)N(S(=O)(=O)c2ccc(-c3ccccc3)cc2)C1` [Compound C-1] are 30 µM and 6.1 µM.
In the same order, the values of `COC(=O)c1cc(C=C2SC(=O)NC2=O)cc(NC(=O)C2CC(OC(c3ccccc3)c3ccccc3)CN2C(=O)c2ccccc2)c1` (stereo not shown) [Compound C-4] are 3.2 µM and 2 µM.
As to `COC(=O)CCc1cc(C=C2SC(=O)NC2=O)cc(NC(=O)C2CC(OC(c3ccccc3)c3ccccc3)CN2C(=O)c2ccccc2)c1` (stereo not shown) [Compound C-5], the figures for the IC50 in experiment [1] and in experiment [2] were 9.8 µM and 1.2 µM, respectively.
On the same counts, the results for `O=C1NC(=O)C(=Cc2cc(CCCO)cc(NC(=O)C3CC(OC(c4ccccc4)c4ccccc4)CN3C(=O)c3ccccc3)c2)S1` (stereo not shown) [Compound C-6] are 13 µM and 2.3 µM.
In the case of `CS[C@H]1C[C@@H](C(=O)Nc2ccc(C(CO)=C3SC(=O)NC3=O)cc2)N(S(=O)(=O)c2ccc(-c3ccccc3)cc2)C1` [Compound D-1], the IC50 is 22 µM in experiment [1] and 3.6 µM in experiment [2].
As to `O=C1NC(=O)C(=C(CO)c2ccc(NC(=O)[C@@H]3C[C@H](SCc4ccccc4)CN3S(=O)(=O)c3ccc(-c4ccccc4)cc3)cc2)S1` [Compound D-2], the values for the IC50 in experiment [1] and in experiment [2] were 7 µM and 5.7 µM, respectively.
`O=C1NC(=O)/C(=C/c2ccc(C=CC[C@@H]3C[C@H](SC(c4ccccc4)(c4ccccc4)c4ccccc4)CN3C(=O)CCc3ccccc3)cc2)S1` [Compound E-2]: the values for the IC50 in experiment [1] and in experiment [2] were 0.46 µM and 6 µM, respectively.
On to `O=C1NC(=O)/C(=C/c2ccc(CCC[C@@H]3C[C@H](SC(c4ccccc4)c4ccccc4)CN3C(=O)CCc3ccccc3)cc2)S1` [Compound E-4], for which the IC50 is 3.7 µM in experiment [1] and 1.9 µM in experiment [2].
As for `O=C1NC(=O)/C(=C/c2ccc(C(=O)NC[C@@H]3C[C@H](OCc4ccc(F)cc4F)CN3C(=O)c3ccc(Cn4sccc4=O)cc3)cc2)S1` [Compound H-8], the IC50 in experiment [1] amounted to 3.2 µM; in experiment [2], 9.9 µM.

The IC50 is the concentration needed to halve the response being measured.

The record behind these values is patent US5955616A, “Pyrrolidine derivatives having phospholipase A2 inhibitory activity” (Shionogi & Co., Ltd., priority 1995, dated 1999).
